Results: patent US9452985B2, “Tau imaging probe” (GE Healthcare Limited, priority 2010, dated 2016)

Assays:
[1] = molecular target: K18-ΔK280 aggregates (Homo sapiens (Human), UniProt P10636, DEL597-597); assay: Saturation binding test of THK-5105; details: [^18F] THK-5105 0.1 to 100 nM, K18-ΔK280 aggregates 200 nM, room temperature, one hour; read-out: dissociation constant Kd
Description: Regarding the binding of tau imaging probes to tau protein aggregates, a binding test was carried out and evaluated using a K18-ΔK280 construct which contained a 4-repeat structure involved in the formation of beta-sheet structures in the htau40 protein. For K18-ΔK280 (Martin von Bergen et al., THE JOURNAL OF BIOLOGICAL CHEMISTRY (2001), vol. 276, pp. 48165-48174; M. Goedert et al., NEURON (1989), vol. 3, pp. 519-526), an artificial gene fragment which was prepared based on its amino acid sequence was cloned into a pET-3a vector, the resulting plasmid was used to transform Escherichia coli BL21 (DE3) competent cells for protein expression, and the recombinant Escherichia coli cell was cultured to express K18-ΔK280. […]
K18-ΔK280 aggregates were made by preparing 20 μM PBS (pH 7.4) and incubating the K18-ΔK280 in the PBS at 37° C. for 4 days. The state where beta-sheet structures in K18-ΔK280 aggregates were formed was ascertained by thioflavin S fluorescence binding test. […]
In the binding test of [^18F] […] THK-5105 to K18-ΔK280 aggregates was calculated from the radioactivity of the filter which was measured on a gamma counter (AccuFLEX γ7000, Aloka). Non-specific binding was determined by adding unlabeled THK-5105 (at a final concentration of 2 μM) to the reaction system and performing experiments in a similar way.

[2] = system: neurofibrillary tangles (tau protein); assay: Autoradiography experiments using [^18F] THK-5105, [^18F] THK-5117 and [^18F] THK-5125; assay type: binding, human; details: hippocampus section and adjacent sections, higher magnification images
Description: Paraffin-embedded sections of the brain from an Alzheimer's disease patient were deparaffinized, and then immersed in PBS for 10 minutes. Approximately 400 μCi/ml of each of [^18F] THK-5105, [^18F] THK-5117, and [^18F] THK-5125 was added dropwise to deparaffinized sections and allowed to react for 10 minutes at room temperature. After that, the sections were immersed in distilled water for 2 minutes, shaken lightly in 50% EtOH for 2 minutes, immersed again in distilled water for 2 minutes, and dried in a paraffin stretching device. The section was left overnight in contact with an imaging plate. Next day, the image was read with a BAS 5000 (Fujifilm Corporation). In addition, adjacent sections were immunostained with anti-phosphorylated tau antibody (AT8).

[3] = system: neurofibrillary tangles; assay: Staining test on brain section of Alzheimer's disease patients; assay type: binding, human; details: 100 μM solution in 50% ethanol, 10 minutes, fluorescence microscope
Excerpt: The procedure of staining test on the compounds of the present invention on the brain section of Alzheimer's disease patients is described below:
(1) We used the brain specimens of the temporal lobe or hippocampus from patients who were definitely diagnosed as having Alzheimer's disease pathology. The specimens were obtained from Choju Medical Institute, Fukushimura Hospital, our collaborating research institute, and the consent for use for research purposes was obtained from the patients' bereaved family (Fukushimura Hospital, Ethics Committee Approval No. 20).
(2) The paraffin-embedded brain tissue was sliced to 6 or 8 μm thickness, extended on a slide glass, and dried. The paraffinized brain section was deparaffinized by washing with xylene for 10 minutes×2, 100% ethanol for 5 minutes×2, 90% ethanol for 5 minutes, and running water for 10 minutes in this order.
(3) As a pretreatment for staining with the compounds of the present invention, the treatment to remove autofluorescence with lipofuscin was performed. First, the paraffinized brain section was immersed in 0.25% KMnO4 solution for 20 minutes. It was washed with PBS for 2 minutes twice, immersed in a 0.1% K2S2O5/oxalic acid solution for approximately 5 minutes, and further washed with PBS for 2 minutes 3 times.
(4) From 100 μM solution of the compounds of the present invention dissolved in 50% ethanol, approximately 150 μl was dropped on the section to react for 10 minutes. After being immersed in tap water 5 times, it was mounted with Flour Save Reagent (Calbiochem) and examined with a fluorescence microscope (Nikon, ECLIPSE 80i). The images were taken with a digital camera (Nikon, Dxin1200F or Photometrics, Cool SNAP ES).

[4] = system: neurofibrillary tangles (tau protein); assay: Autoradiography test with [^18F] BF-227 and [^18F] THK-5035 on brain section of Alzheimer's disease patients; assay type: binding, human; details: approximately 400 μCi/ml, 10 minutes
Description: After the paraffin-embedded brain section of Alzheimer's disease patients was deparaffinized, it was immersed in PBS for 10 minutes. Approximately 400 μCi/ml of [^18F] BF-227 and [^18F] THK-5035 were dropped on the section to react for 10 minutes at room temperature. It was immersed in distilled water for 2 minutes, shaken in 50% EtOH lightly for 2 minutes, immersed again in distilled water for 2 minutes, and dried in a paraffin extension device. The section was contacted on an imaging plate and settled overnight, and the next day, the images were read with a BAS5000 (Fujifilm Corporation). Furthermore, the serial section was immunostained with thioflavine-S staining and anti-tau antibody (AT8).

K18-ΔK280 aggregates, sequence (P10636 other isoform, or with tags, fused parts or gaps del 597-597): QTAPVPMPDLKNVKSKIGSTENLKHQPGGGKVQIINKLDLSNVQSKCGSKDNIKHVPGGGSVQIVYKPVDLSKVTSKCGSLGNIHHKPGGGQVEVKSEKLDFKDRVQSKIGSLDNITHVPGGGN

Row | Kd [1] [nM] | SMILES | correspondence of autoradiography / unlabeled staining image with anti-phosphorylated tau antibody (AT8) immunostaining [2] | binding to neurofibrillary tangles in the brain section of Alzheimer's disease patients (staining test) [3] | accumulation in the region where [^18F] THK-5035 was accumulated (anti-tau antibody positive region), autoradiography [4]
1 | 3.9 | CN(C)c1ccc(-c2ccc3cc(OCC(O)CF)ccc3n2)cc1 (stereo not shown) [THK-5105, 6-[(3-fluoro-2-hydroxy)propoxy]-2-(4-dimethylaminophenyl)quinoline] | corresponded well with the image of immunostaining with the anti-phosphorylated tau antibody | bind to neurofibrillary tangles specifically and selectively | 
2 |  | CN(C)c1ncc(C=Cc2nc3ccc(OCCF)cc3o2)s1 [[^18F] BF-227] |  |  | no accumulation
